The source of these data is ChEMBL document CHEMBL1201862, “PubChem BioAssay data set” (2004).

Each structure is given as a SMILES string.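 Results reflect a 48-hour exposure of cells in 96-well plates to compound at five concentrations. GI50 = concentration required for 50% inhibition of growth.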 Activity calls are given as the source filed them. No stated cut-off is given here; in the data, active = GI50 up to about 1.1 µM and inactive = higher.

What all share (assay): growth of human tumour cells (NCI), 48 h
Test [1] relates to LOX IMVI.
The subject of test [2] is SK-MEL-5.
Test [3] relates to Malme-3M.
In test [4] the test system is COLO 205.
Test [5] has as its system RXF 393.
Test [6] deals with KM12.
The test system of test [7] is MDA-MB-231.
In test [8] the test system is HCT-116.
Test [9] relates to PC-3.
The test system of test [10] is MOLT-4.
Test [11] deals with HOP-62.
Test [12] concerns ACHN.
Test [13] deals with SNB-19.
Test [14] has as its system BT-549.
Test [15] has as its system SK-MEL-2.
Test [16] has as its system UACC-62.
Test [17] deals with CAKI-1.
For test [18], the system named is HCT-15.
Test [19] concerns OVCAR-3.

For the molecule `O=S(=O)(Nc1nc2ccccc2nc1N1CCCCCC1)c1ccccc1`, the GI50 in test [1] was > 100 µM (inactive); in test [2] it was 14.3 µM (inactive); in test [3] it was 25.4 µM (inactive); in test [4], > 100 µM (inactive); in [5] it was 19.1 µM (inactive); in test [6], 15.8 µM (inactive). In addition, the GI50 is > 100 µM (inactive) in test [7]; > 100 µM (inactive) in test [8]; 19.4 µM (inactive) in test [9]; 16.4 µM (inactive) in test [10]; 23 µM (inactive) in test [11]; 21.1 µM (inactive) in test [12]. Besides, the GI50 in test [13] is 28.2 µM (inactive); in [14], 19 µM (inactive); in test [15], 16.3 µM (inactive); in [16], 18.4 µM (inactive); in [17], > 100 µM (inactive); in test [18], 17.2 µM. For the same molecule, in test [19], the GI50 is 17.1 µM (inactive).

In the case of `C/C(=C\[C@H]1C[C@@H]([C@@H]2CC[C@]34C[C@]23C=C[C@@H]2[C@@]3(C)CC=C5C[C@@H](c6ccccc6)OC[C@]5(C)[C@@H]3C[C@@H](O)[C@]24C)C(=O)O1)CO` [DICHAPETALIN A], the GI50 was 1.52 µM (inactive) in test [1]; 0.286 µM (active) in test [2]; 3.56 µM (inactive) in test [3]; 2.01 µM (inactive) in test [4]; 77.8 µM (inactive) in [5]; 2.45 µM (inactive) in test [6]. Moreover, the GI50 in [7] was 5.35 µM (inactive); in test [8] it was 1.14 µM (inactive); in [9] it was 2.64 µM (inactive); in test [10], 1.59 µM (inactive); in test [11], 10.2 µM (inactive); in test [12], 3.33 µM (inactive). Besides, the GI50 in test [13] is 11.8 µM (inactive); in test [14], 3.78 µM (inactive); in test [15], 31.4 µM (inactive); in test [16], 9.02 µM (inactive); in test [17], 2.08 µM (inactive); in test [18], 4.38 µM. Also, the GI50 in [19] is 3.52 µM (inactive).

Consider `CCOC(=O)CC1(Cc2ccc(OCc3ccccc3)cc2)C(=O)OC(c2ccccc2)N1C(=O)c1ccccc1` (stereo not drawn), for which the GI50 in test [1], in test [2], in test [3], in test [4], in test [5] and in test [6] was > 100 µM (inactive) each time. Further, the GI50 is 68.9 µM (inactive) in test [7]; > 100 µM (inactive) in test [8]; > 100 µM (inactive) in test [9]; > 100 µM (inactive) in test [10]; > 100 µM (inactive) in test [11]; > 100 µM (inactive) in [12]. The GI50 in test [13] is > 100 µM (inactive); in [14], > 100 µM (inactive); in test [15], > 100 µM (inactive); in [16], > 100 µM (inactive); in [17], > 100 µM (inactive); in test [18] it was more than 100 µM. Also, in [19], the GI50 was > 100 µM (inactive).

As for `COC(=O)NN(C(=O)OC)c1c(-c2ccccc2)nc(SC)n1N`, the GI50 in test [1], in test [2], in test [3], in [4], in test [5] and in test [6] was > 100 µM (inactive) in each case. Besides, the GI50 in test [7], in test [8], in test [9], in test [10], in test [11] and in test [12] was > 100 µM (inactive) in each case. For the same molecule, the GI50 in test [13] was > 100 µM (inactive); in test [14], > 100 µM (inactive); in test [15], > 100 µM (inactive); in test [16], > 100 µM (inactive); in test [17], > 100 µM (inactive); in test [18], more than 100 µM. Besides, the GI50 in [19] is > 100 µM (inactive).

As to `Cc1nnc(N2C(=O)C(=Cc3ccc(Cl)cc3)N=C2c2ccc(Cl)cc2)nc1/C=C\c1ccc(N(C)C)cc1`, the GI50 in test [1], in test [2], in test [3], in test [4], in test [5] and in [6] was > 100 µM (inactive) throughout. The GI50 in test [7], in test [8], in [9], in [10], in [11] and in test [12] was > 100 µM (inactive) throughout. Besides, the GI50 is > 100 µM (inactive) in test [13]; > 100 µM (inactive) in [14]; > 100 µM (inactive) in test [15]; > 100 µM (inactive) in test [16]; > 100 µM (inactive) in [17]; more than 100 µM in [18]. The GI50 in test [19] is > 100 µM (inactive).

`COc1cc(N(CCC#N)CCC#N)ccc1C(/N=N/c1cccc(C)c1)=N\NC(=O)c1ccc(C)cc1`: the GI50 in test [1] is > 100 µM (inactive); in test [2], > 100 µM (inactive); in test [3], 43.5 µM (inactive); in test [4] it was 60 µM (inactive); in [5], 73.8 µM (inactive); in test [6] it was > 100 µM (inactive). The GI50 in [7] was > 100 µM (inactive); in test [8], > 100 µM (inactive); in [9], > 100 µM (inactive); in [10] it was 7.91 µM (inactive); in [11], > 100 µM (inactive); in [12], 21.8 µM (inactive). In addition, the GI50 was > 100 µM (inactive) in test [13]; > 100 µM (inactive) in test [14]; > 100 µM (inactive) in [15]; 37.2 µM (inactive) in test [16]; > 100 µM (inactive) in test [17]; more than 100 µM in [18]. In addition, in test [19], the GI50 was > 100 µM (inactive).

As to `O=C1Nc2ccccc2S/C1=C\c1ccccc1C(F)(F)F`, the GI50 in test [1], in test [2], in test [3], in test [4], in test [5] and in test [6] was > 100 µM (inactive) in each case. Also, the GI50 in test [7] was > 100 µM (inactive); in [8] it was > 100 µM (inactive); in test [9] it was > 100 µM (inactive); in test [10], > 100 µM (inactive); in test [11], > 100 µM (inactive); in [12], 15.1 µM (inactive). For the same molecule, the GI50 in [13] was > 100 µM (inactive); in test [14] it was 59.7 µM (inactive); in test [15], > 100 µM (inactive); in test [16] it was > 100 µM (inactive); in [17], 68.9 µM (inactive); in test [18], more than 100 µM. In addition, the GI50 in test [19] was > 100 µM (inactive).
